Where a name gives a salt, the structure may show the parent alone.
What was measured:
[1] = test system: coronary arteries (Langendorff's isolated heart); assay: Langendorff's isolated heart preparation (dilation of coronary arteries)
Method: In addition to their utility in the treatment of hypertension, the compounds of formula (I) are useful in the treatment of the symptoms of angina pectoris by virtue of their ability to dilate coronary arteries. Their activity was measured using the "Langendorff's isolated heart" preparation. This test has been described in "Pharmacological Experiments on Isolated Preparations". Staff of the Department of Pharmacology, University of Edinbourgh, 2nd Ed., Churchill Livingstone, N.Y., 1970, pp. 112-119. The test compounds were administered at concentrations of 30.0, 10.0, 3.0, 1.0, 0.3, 0.1, 0.03, and 0.01 micromolar (10^-6 molar).

[2] = test system: spontaneously hypertensive rats; assay: Spontaneously Hypertensive Rat (SHR) test, arterial pressure; format: in vivo, adult spontaneously hypertensive rats (Charles Rivers); conditions: SH rats, fall of mean arterial pressure
Method: The activity of compounds of formula (I) for the treatment of hypertension was determined using the Spontaneously Hypertensive Rat (SHR) test as described below. In this test, the arterial pressure of adult spontaneously hypertensive rats (Charles Rivers) is monitored directly via an aortic cannula. The SH rats are anesthetized with an inhalation anesthetic (ether). The left carotid artery is isolated and cannulated. The tip of the cannula is advanced to the aorta and the cannula is exteriorized behind the neck at the level of the scapula. Animals are placed in individual cages and allowed to recover from the anesthetic and are kept unrestrained. The arterial cannula is connected to the pressure transducer which is attached to the recorder. The test compounds are administered to at least 3 rats at doses selected in the range of 0.1 to 100 mg/kg of body weight by intraperitoneal (i.p.) or oral (p.o.) routes of administration. The arterial pressure and heart rate are monitored for a minimum of 24 hr. A test compound is considered to be active as an antihypertensive agent if the mean arterial pressure (MAP) indicates a fall of >15 mm of Hg. Each animal serves as its own control.

[3] = test system: Mongrel dogs; assay: Myocardial Oxygen Supply and Demand (dog) Test; format: in vivo; conditions: i.v., anesthetized dog; for increasing coronary blood flow: p<0.05
Method: The activity of compounds of formula (I) in the treatment of angina was also determined using the Myocardial Oxygen Supply and Demand (dog) Test as described below.
Mongrel dogs of either sex weighing between 8.4 and 12.3 kg were used for this study. These dogs were obtained from Haycock Farm, Quakertown, PA. They were anesthetized with pentabarbitol Na and ventilated with a Harvard positive pressure respirator (Model 607 , Dover, MA) to maintain their blood pH and gaseous tension within physiological ranges. Heparin-filled polyethylene catheters were implanted into the right femoral artery (PE-260) and the right atrium (PE-180) for the measurement of their respective pressures. The right femoral vein was cannulated with a heparin-filled polyethylene catheter (PE-200) for drug infusion. A thoracotomy was then performed via the left fifth intercostal space. The left circumflex coronary artery was isolated from surrounding fascia and an electromagnetic flow transducer (I.D.=2.0 mm, Gould Statham Inc. Oxnard, CA) placed around it for the measurement of coronary blood flow. A Delmed intravenous catheter (18.5 ga.×8 in., Canton, MA) was inserted into the coronary sinus via a puncture wound made by an 18 ga. needle for coronary venous effluent blood sampling. Arterial oxygen samples were taken from the femoral arterial catheters. Total content of oxygen in whole blood was measured by the Lex-02-Con-TL (Lexington Instruments Corp., Waltham, MA). Myocardial oxygen consumption was estimated by the product of the difference in arterial and coronary sinus oxygen content and coronary blood flow through the left circumflex coronary artery. These techniques have been used extensively to study the effects of calcium channel blockers on myocardial oxygen supply and demand in various animal models. References for these techniques include Jolly, S. R. and Gross, G. J. Effect of FR 7534, A New Calcium Antagonist, On Myocardial Oxygen Demand. Euro. J. Pharm. 54: 289-293, (1979); Ono, H., Ohara, N. and Hashimoto, K. Effect of an Anti-Anginal Drug, Perhexiline, on Myocardial Oxygen Consumption in Anesthetized Open-Chest Dogs Compared With Verapamil and Glyceryl Trinitrate. Jap. Cir. J. 46: 559-567 (1982); and Vater, W. and Schlossman, K. Effects of Nifedipine on the Hemodynamics and Oxygen Consumption of the Heart in Animal Experiments, in: Jatene and Lichtlen, 3rd International Adalat Symposium: New Therapy of Ischemic Heart Disease (Exerpta Medica, Amsterdam, Oxford), p. 33, (1975). Arterial blood pH and gaseous tension were measured by a Corning pH/blood gas analyzer (Model 168, Medfield, MA). Arterial and atrial pressures were measured by connecting their respective catheters to Statham strain-gauge manometers (P23D, Gould Inc., Oxnard, CA). Gould-Statham electromagnetic blood flowmeters (Model SP2202, Oxnard, CA) were used to measure coronary blood flow. Lead II of the EKG was monitored continuously through subcutaneous insertion of stainless steel needle electrodes on the body surface of the animal. The EKG was recorded by a Grass oscillograph (Model 7D, Quincy, MA) with an EKG-pulse pre-amplifier (Model 7P6C) and a Polygraph D.C. driver amplifier (Model 7DAG). All the other recorded variables, i.e., arterial pressure, right atrial pressure and coronary blood flow were recorded by the Grass oscillograph. Coronary vascular resistance was calculated as the quotient of the difference in mean pressure (arterial-right atrial) and left circumflex blood flow. […]

| Compound | EC30 [1] [nM] | SHR δMAP ([2]; dose 30 (mg/kg), po) | SHR δMAP ([2]; dose 10 (mg/kg), ip) | also measured |
| --- | --- | --- | --- | --- |
| CC(C)(C)COCC(CN(Cc1ccccc1)c1c(Cl)cccc1Cl)N1CCCC1 (stereo not drawn) [Example 6, N-(2,6-Dichlorophenyl)-beta-[(2,2-dimethylpropoxy)methyl]-N-(phenylmethyl)-1-pyrrolidineethanamine Hydrochloride (1:1)] | 7.3 | -33 mm of Hg |  |  |
| Cc1cccc(C)c1N(Cc1ccccc1)CC(COCC(C)(C)C)N1CCCC1.Cl (stereo not drawn) [Example 8b, N-(2,6-Dimethylphenyl)-beta-[(2,2-dimethylpropoxy)methyl]-N-(phenylmethyl)-1-pyrrolidineethanamine Hydrochloride] | 2.8 | -21 mm of Hg |  |  |
| COc1cccc(N(Cc2ccccc2)CC(COCC(C)(C)C)N2CCCC2)c1.O=C(O)/C=C/C(=O)O (stereo not drawn) [Example 2d, beta-[(2,2-Dimethylpropoxy)methyl]-N-(3-methoxyphenyl)-N-(phenylmethyl)-1-pyrrolidineethanamine (E)-2-Butenedioate (1:1)] | 29 | -29 mm of Hg |  |  |
| N-(2,6-Dichlorophenyl)-N-(phenylmethyl)-alpha-[[(tricyclo-[3.3.1.1^3,7]dec-1-yl)methoxy]methyl]-1-pyrrolidineethanamine Hydrochloride (1:1) [Example 11c] |  | -41 mm of Hg |  | Langendorff EC30 [1]: .010 10^-6 M |
| CC(C)(C)COCC(CN(Cc1ccccc1)c1cccc(C(F)(F)F)c1)N1CCCC1.Cl (stereo not drawn) [Example 9b, beta-[(2,2-Dimethylpropoxy)methyl]-N-(phenylmethyl)-N-[3-(trifluoromethyl)phenyl]-1-pyrrolidineethanamine Hydrochloride] | 20 | -28 mm of Hg |  |  |
| CC(C)(C)COCC(CN(Cc1ccccc1)c1ccccc1)N1CCCC1 (stereo not drawn) [Example 10, β-[(2,2-Dimethylpropoxy)methyl]-N-phenyl-N-(phenylmethyl)-1-pyrrolidineethanamine (E)-2-Butenedioate (1:1)] | 5 | -13 mm of Hg | -28 mm of Hg |  |
| CC(C)(C)COCC(CN(CC1CCCCC1)c1c(Cl)cccc1Cl)N1CCCC1 (stereo not drawn) [Example 12, N-(Cyclohexylmethyl)-N-(2,6-dichlorophenyl)-beta-[(2,2-dimethylpropoxy)methyl]-1-pyrrolidineethanamine (E)-2-Butenedioate Hydrate (20:25:2)] | 3 | -25 mm of Hg |  |  |
| CC1(COCC(CN(Cc2ccccc2)c2c(Cl)cccc2Cl)N2CCCC2)CCCCC1.Cl (stereo not drawn) [Example 1e, N-(2,6-Dichlorophenyl)-beta-[[(1-methylcyclohexyl)methoxy]methyl]-N-(phenylmethyl)-1-pyrrolidineethanamine hydrochloride(1:1)] | 4.6 | -60 mm of Hg |  | decreased arterial pressure ([3]; 0.25 mg/kg): 8%; increasing coronary blood flow ([3]; 0.25 mg/kg): 80%; decreased arterial pressure ([3]; 0.50 mg/kg): 15%; increasing coronary blood flow ([3]; 0.50 mg/kg): 221%; myocardial oxygen supply/demand ratio ([3]; 0.25 and 0.50 mg/kg): markedly increased |
| CC(C)(C)COCC(CN(Cc1ccccc1)c1ccccc1Cl)N1CCCC1.Cl (stereo not drawn) [Example 3b, N-(2-Chlorophenyl)-beta-[(2,2-dimethylpropoxy)methyl]-N-(phenylmethyl)-1-pyrrolidineethanamine Hydrochloride (1:1)] | 27 | -6 mm of Hg | -52 mm of Hg |  |
| COc1ccc(CN(CC(COCC(C)(C)C)N2CCCC2)c2c(Cl)cccc2Cl)cc1OC.Cl (stereo not drawn) [Example 5, N-(2,6-Dichlorophenyl)-N-[(3,4-dimethoxyphenyl)methyl]-beta-[(2,2-dimethylpropoxy)methyl]-1-pyrrolidineethanamine-Hydrochloride (1:1)] | 1 | -15 mm of Hg |  |  |
| CC(C)(C)COCC(CN(Cc1ccncc1)c1c(Cl)cccc1Cl)N1CCCC1.Cl.Cl (stereo not drawn) [Example 7, N-(2,6-Dichlorophenyl)-beta-[(2,2-dimethylpropoxy)methyl]-N-(4-pyridinylmethyl)-1-pyrrolidineethanamine Dihydrochloride] | 28 | -37 mm of Hg |  |  |
| CN(C)c1ccc(CN(CC(COCC(C)(C)C)N2CCCC2)c2c(Cl)cccc2Cl)cc1 (stereo not drawn) [Example 4c, N-(2,6-Dichlorophenyl)-N-[[4-(dimethylamino)phenyl]methyl]beta-[(2,2-dimethylpropoxy)methyl]-1-pyrrolidineethanamine Hydrochloride Hydrate (7:7:1)] | 1.6 | -14 mm of Hg | -23 mm of Hg |  |
| CC(C)(C)OCC(CN(Cc1ccccc1)c1c(Cl)cccc1Cl)N1CCCC1 (stereo not drawn) [Example 13, N-(2,6-Dichlorophenyl)-beta[ (1,1-dimethylethoxy)methyl]-N-(phenylmethyl)-1-pyrrolidineethanamine Hydrochloride (1:1)] | 4.3 | -20 mm of Hg | -74 mm of Hg |  |

— patent publication US4727072A, “3-alkoxy-2-aminopropylamines compositions and use as cardiovascular agents” (McNeilab, Inc., priority 1986, dated 1988)
